Results: patent US8455475B2 (Gruenenthal GmbH, priority 2009, dated 2013)

Tests used:
[1] = biological target: T1, human B1R (bradykinin receptor 1) (Homo sapiens, UniProt P46663); test: FLIPR Ca2+ assay (Fluo-4) on CHO K1 cells stably transfected with the human B1R gene (hB1R cells): % inhibition at 10 μM / IC50, agonist Lys-Des-Arg9-bradykinin; type: cell-based; settings: for inhibition at 10 µM: CHO-K1, human B1R
T1 construct: expressed in transfected cells; host or cells: CHO K1 cells
T1 sequence (P46663 1-353): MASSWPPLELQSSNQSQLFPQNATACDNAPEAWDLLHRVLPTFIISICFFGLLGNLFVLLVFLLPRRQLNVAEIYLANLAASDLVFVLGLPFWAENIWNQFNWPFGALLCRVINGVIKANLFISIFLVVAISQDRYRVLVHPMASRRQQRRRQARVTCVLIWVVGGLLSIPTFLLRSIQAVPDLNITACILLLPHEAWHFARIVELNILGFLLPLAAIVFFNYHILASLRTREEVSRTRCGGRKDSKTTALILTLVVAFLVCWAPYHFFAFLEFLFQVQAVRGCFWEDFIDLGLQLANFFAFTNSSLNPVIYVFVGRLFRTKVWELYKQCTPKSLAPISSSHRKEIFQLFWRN
How it was run: (§1)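 Using a two-addition FLIPR protocol, compound (10 μM for % values; concentration series for IC50) was preincubated 10–20 min with Fluo-4-loaded B1R-expressing CHO K1 cells before EC80 agonist challenge. Suppression of Ca2+ inflow, read as peak fluorescence, is expressed relative to maximum achievable inhibition; duplicate/triplicate, ≥2 independent experiments.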

[2] = biological target: T2, rat B1R (bradykinin receptor 1) (Rattus norvegicus, UniProt P97583); test: FLIPR Ca2+ assay (Fluo-4) on CHO K1 cells stably transfected with the B1R gene of the rat (rB1R cells): % inhibition at 10 μM / IC50, agonist Des-Arg9-bradykinin; type: cell-based; settings: for inhibition at 10 µM: CHO-K1, rat B1R
T2 construct: expressed in transfected cells; host or cells: CHO K1 cells
T2 sequence (P97583 1-337): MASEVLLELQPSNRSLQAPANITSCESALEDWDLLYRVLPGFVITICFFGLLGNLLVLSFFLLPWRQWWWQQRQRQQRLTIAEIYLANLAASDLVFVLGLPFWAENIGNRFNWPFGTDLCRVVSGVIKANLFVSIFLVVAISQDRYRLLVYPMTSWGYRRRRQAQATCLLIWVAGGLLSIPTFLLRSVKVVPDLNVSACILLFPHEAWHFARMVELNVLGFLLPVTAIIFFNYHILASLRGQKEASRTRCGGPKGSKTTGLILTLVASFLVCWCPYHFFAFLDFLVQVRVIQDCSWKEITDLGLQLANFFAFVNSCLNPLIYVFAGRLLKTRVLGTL
How it was run: as §1

SMILES | inhibition at 10 µM [1] [%] | inhibition at 10 µM [2] [%] | % Inhibition (human B1R) at 10 μM ([1]; human B1R) [%] | % Inhibition (rat B1R) at 10 μM ([2]; rat B1R) [%]
O=C(NC1CCc2ccc(C(=O)N3CCC4(CCN(Cc5ccc6nccnc6c5)CC4)C3)cc21)c1ccccc1Cl (stereo not drawn) [IND_CC-568, 2-Chloro-N-[6-[8-(quinoxalin-6-yl-methyl)-2,8-diazaspiro[4.5]decane-2-carbonyl]-2,3-dihydro-1H-inden-1-yl]-benzamide] | 20 | 105 |  | 
O=C(N[C@@H]1CCCc2ccc(C(=O)N3CCCC4(CCCN(c5ccncc5)C4)C3)cc21)c1ccccc1Cl (stereo partly drawn) [Example H-69] | 98 | 102 |  | 
CN(C)C1(c2ccc(F)cc2)CCC2(CCN(C(=O)c3ccc4c(c3)C(NC(=O)c3ccccc3Cl)CC4)CC2)CC1 (stereo not drawn) [Ind_CC-099, 2-chloro-N-[6-[9-dimethylamino-9-(4-fluorophenyl)-3-azaspiro[5.5]undecane-3-carbonyl]-2,3-dihydro-1H-inden-1-yl]-benzamide] | 39 | 103 |  | 
O=C(NC1CCc2ccc(C(=O)N3CCC4(CCC(N5CCC5)CC4)CC3)cc21)c1ccccc1Cl (stereo not drawn) [Example H-06, N-[6-[9-(azetidin-1-yl)-3-azaspiro[5.5]undecane-3-carbonyl)-2,3-dihydro-1H-indan-1-yl]-2-chloro-benzamide] | 60 | 98 |  | 
CN1CCC(N2CCC3(CCN(C(=O)c4ccc5c(c4)[C@H](NC(=O)c4ccccc4Cl)CC5)CC3)CC2)CC1 [Example H-28, 2-chloro-N-[(1R)-6-[9-(1-methyl-piperidin-4-yl)-3,9-diazaspiro[5.5]undecane-3-carobnyl]-2,3-dihydro-1H-inden-1-yl]-benzamide] | 57 | 102 |  | 
O=C(c1ccc2c(c1)C(N(C(=O)c1ccccc1Cl)C1CC1)CC2)N1CCC2(CCN(Cc3ccncc3)CC2)CC1 (stereo not drawn) [Ind_CC-116, 2-chloro-N-cyclopropyl-N-[6-[9-(pyridin-4-yl-methyl)-3,9-diazaspiro[5.5]undecane-3-carbonyl]-2,3-dihydro-1H-inden-1-yl]-benzamide] | 68 | 77 |  | 
CC1(C)CC(NC(=O)Nc2ccc(Cl)c(Cl)c2)c2cc(C(=O)N3CCC4(CC3)CCN(c3ccncc3)CC4)ccc21 (stereo not drawn) [Ind_CC-057] |  |  | 35 | 80
CN(C(=O)C(c1ccccc1)c1ccccc1Cl)C1CCc2ccc(C(=O)N3CCC4(CC3)CCN(c3ccncc3)CC4)cc21 (stereo not drawn) [Ind_CC-021, 2-(2-chlorophenyl)-N-methyl-2-phenyl-N-[6-(9-pyridin-4-yl-3,9-diazaspiro[5.5]undecane-3-carbonyl)-2,3-dihydro-1H-inden-1-yl]-acetamide] | 94 | 96 |  | 
CC1(C)Cc2ccc(C(=O)N3CCC4(CC3)CCN(c3ccncc3)CC4)cc2C1NC(=O)c1cc(C(F)(F)F)ccc1Cl (stereo not drawn) [IND_CC-219, 2-Chloro-N-[2,2-dimethyl-6-(9-pyridin-4-yl-3,9-diazaspiro[5.5]undecane-3-carbonyl)-1,3-dihydro-inden-1-yl]-5-(trifluoromethyl)-benzamide] | 53 | 104 |  | 
COc1cc(C)c(C(=O)NC2CCc3ccc(C(=O)N4CCC5(CCN(Cc6ccncc6)CC5)CC4)cc32)c(C)c1 (stereo not drawn) [Ind_CC-092, 4-methoxy-2,6-dimethyl-N-[6-[9-(pyridin-4-yl-methyl)-3,9-diazaspiro[5.5]undecane-3-carbonyl]-2,3-dihydro-1H-inden-1-yl]-benzamide] | 78 | 101 |  | 

Other lines, results leading:

inhibition at 10 µM [1] [%] | inhibition at 10 µM [2] [%] | % Inhibition (human B1R) at 10 μM ([1]; human B1R) [%] | % Inhibition (rat B1R) at 10 μM ([2]; rat B1R) [%] | SMILES
100 | 104 |  |  | COc1ccc(C(=O)N[C@@H]2CCc3ccc(C(=O)N4CCC5(CCN(c6ccncc6)CC5)C4)cc32)c(C)c1 [Example H-61, 4-Methoxy-2-methyl-N-[(1R)-6-(8-pyridin-4-yl-3,8-diazaspiro[4.5]decane-3-carbonyl)-2,3-dihydro-1H-inden-1-yl]-benzamide]
100 | 107 |  |  | O=C(c1ccc2c(c1)[C@H](NS(=O)(=O)c1ccccc1Cl)CC2)N1CCC2(CCN(c3ccncc3)CC2)C1 [Example H-105, 2-Chloro-N-[(1R)-6-(8-pyridin-4-y-3,8-diazaspiro[4.5]decane-3-carbonyl)-2,3-dihydro-1H-inden-1-yl]-benzenesulfonic acid amide]
100 | 102 |  |  | CC1(C)CC(NC(=O)c2ccc(Cl)cc2Cl)c2cc(C(=O)N3CCC4(CC3)CCN(c3ccncc3)CC4)ccc21 (stereo not drawn) [Ind_CC-059, 2,4-dichloro-N-[3,3-dimethyl-6-(9-pyridin-4-yl-3,9-diazaspiro[5.5]undecane-3-carbonyl)-1,2-dihydro-inden-1-yl]-benzamide]
89 | 104 |  |  | O=C(N[C@H]1CCc2c(C(=O)N3CCC4(CCN(c5ccncc5)CC4)C3)cccc21)c1ccccc1Cl [Example H-161, 2-Chloro-N-[(1S)-4-(8-pyridin-4-yl-3,8-diazaspiro[4.5]decane-3-carbonyl)-2,3-dihydro-1H-inden-1-yl]-benzamide]
100 | 105 |  |  | O=C(NC1CCc2ccc(C(=O)N3CCC4(CC3)CCN(c3ccncc3)CC4)cc21)c1ccc(F)cc1Cl (stereo not drawn) [IND_CC-262, 2-Chloro-4-fluoro-N-[6-(9-pyridin-4-yl-3,9-diazaspiro[5.5]undecane-3-carbonyl)-2,3-dihydro-1H-inden-1-yl]-benzamide]
99 | 101 |  |  | O=C(NC1CCc2ccc(C(=O)N3CCC4(CCN(c5ccncc5)CC4)C3)cc21)c1ccccc1C(F)(F)F (stereo not drawn) [Ind_CC-081, N-[6-(8-pyridin-4-yl-3,8-diazaspiro[4.5]decane-3-carbonyl)-2,3-dihydro-1H-inden-1-yl]-2-(trifluoromethyl)-benzamide]
65 | 100 |  |  | O=C(NC1CCc2ccc(C(=O)N3CCC4(CCC(c5ccncc5)CC4)C3)cc21)c1ccccc1Cl (stereo not drawn) [Example H-133, 2-Chloro-N-[6-(8-pyridin-4-yl-3-azaspiro[4.5]decane-3-carbonyl)-2,3-dihydro-1H-inden-1-yl]-benzamide]
31 | 98 |  |  | COc1ccc(N2CCC3(CCN(C(=O)c4ccc5c(c4)[C@H](NC(=O)c4ccccc4Cl)CC5)C3)CC2)cc1 [Example H-139, 2-Chloro-N-[(1R)-6-[8-(4-methoxyphenyl)-3,8-diazaspiro[4.5]decane-3-carbonyl]-2,3-dihydro-1H-inden-1-yl]-benzamide]
100 | 101 |  |  | CN(C(=O)c1ccccc1C(F)(F)F)C1CCc2ccc(C(=O)N3CCC4(CC3)CCN(c3ccncc3)CC4)cc21 (stereo not drawn) [Ind_CC-015, N-methyl-N-[6-(9-pyridin-4-yl-3,9-diazaspiro[5.5]undecane-3-carbonyl)-2,3-dihydro-1H-inden-1-yl]-2-(trifluoromethyl)-benzamide]
100 | 104 |  |  | O=C(NC1CCc2ccc(C(=O)N3CCC4(CC3)CCN(c3ccncc3)CC4)cc21)c1cc(F)ccc1Cl (stereo not drawn) [IND_CC-220, 2-Chloro-5-fluoro-N-[6-(9-pyridin-4-yl-3,9-diazaspiro[5.5]undecane-3-carbonyl)-2,3-dihydro-1H-inden-1-yl]-benzamide]
99 | 98 |  |  | COc1cc(C)c(S(=O)(=O)NC2CCc3ccc(C(=O)N4CCC5(CC4)CCN(c4ccncc4)CC5)cc32)c(C)c1 (stereo not drawn) [Ind_CC-001, 4-methoxy-2,6-dimethyl-N-[6-(9-pyridin-4-yl-3,9-diazaspiro[5.5]undecane-3-carbonyl)-2,3-dihydro-1H-inden-1-yl]-benzenesulfonic acid amide]
100 | 105 |  |  | O=C(N[C@@H]1CCc2ccc(C(=O)N3CCC4(CC3)CCN(c3ccncc3)C4)cc21)c1c(Cl)cccc1C(F)(F)F [Example H-83, 2-Chloro-N-[(1R)-6-(3-pyridin-4-yl-3,8-diazaspiro[4.5]decane-8-carbonyl)-2,3-dihydro-1H-inden-1-yl]-6-(trifluoromethyl)-benzamide]
100 | 105 |  |  | CC(C)CC(=O)N[C@@H]1CCc2ccc(C(=O)N3CCC4(CCN(c5ccncc5)CC4)C3)cc21 [Example H-143, 3-Methyl-N-[(1R)-6-(8-pyridin-4-yl-3,8-diazaspiro[4.5]decane-3-carbonyl)-2,3-dihydro-1H-inden-1-yl]-butyramide]
97 | 98 |  |  | O=C(NC1CCc2ccc(C(=O)N3CCC4(CC3)CCN(c3ccncc3)CC4)cc21)c1ccc(Cl)s1 (stereo not drawn) [Ind_CC-005, 5-chloro-N-[6-(9-pyridin-4-yl-3,9-diazaspiro[5.5]undecane-3-carbonyl)-2,3-dihydro-1H-inden-1-yl]-thiophene-2-carboxylic acid amide]
